The experiment deals with K24384-001-R-PDC complex spheroids, viability. Kind of experiment: Anticancer human tumor K24384-001-R-PDC patient-derived pancreatic adenocarcinoma cell line growth inhibition [GQUAD]. To be noted: for viability, T/C: stronger effect = lower value. The source says: DNA G-quadruplex Stabilizer Agents in Combinations in Complex Spheroids
A high-throughput screen of multi-cell type tumor spheroids was designed to identify active combinations of DNA G-quadruplex stabilizer agents and targeted small molecules. Complex spheroids include a stromal component modeled by human endothelial cells (HUVEC) and fibroblasts modeled by human mesenchymal stem cells (MSCs). The concentration ranges selected for each drug and investigational agent were based upon clinically achievable concentrations if the clinical Cmax of the agent was known.
Compounds. The drugs and investigational agents: pidnarulex (CX-5461; NSC782164), APTO-253 (NSC789042), BRACO-19 (NSC847499), peposertib (NSC802822), ceralasertib (NSC780249), elimusertib (NSC800525), camonsertib (NSC841442), AZD-1390 (NSC803789), olaparib (NSC753686), talazoparib (NSC767125), ART-558 (NSC835418), sotorasib (NSC818433), MRTX-1133 (NSC836407), SN-38 (NSC673596), topotecan (NSC609699), etoposide (NSC141540), doxorubicin (NSC123127), gemcitabine (NSC613327), 5-fluorouracil (NSC19893), paclitaxel (NSC125973), vemurafenib (NSC761431), panobinostat (NSC761190), R-306465 (JNJ-16241199; NSC773264), adavosertib (NSC754352), TP-3654 (NSC805149), carboplatin (NSC241240), KSQ-4279 (NSC840948), and staurosporine (NSC755774) were obtained from the National Cancer Institute (NCI) Developmental Therapeutics Program Chemical Repository (34). The FDA-approved anticancer drug set is available from the NCI Developmental Therapeutics Program. […] The stock solutions were prepared in dimethyl sulfoxide (DMSO, Sigma-Aldrich, St. Louis, MO, cat. D2650) at 800-fold the tested concentration and stored at -70 degrees C prior to their use. All drugs and investigational agents were tested over a range starting from a high concentration at or near the clinical Cmax and decreasing in half-log increments. If the clinical Cmax for an agent had not been determined, the highest concentration tested was 10 microM.
2.3 Cell Culture. All cells were maintained in an incubator at 37 degrees C and 5% CO2 with 95% humidity. The PDC lines were cultured according to standard operating procedures established by the NCI PDMR. All PDCs were thawed and cultured in Matrigel-coated flasks prepared with a working solution of 1X Ham's F-12 nutrient mix, without supplementation (Invitrogen, cat. 11765054), 100 U/mL penicillin-streptomycin (Invitrogen, cat. 15140122), and 2.5% Matrigel (Corning Inc., cat. 354248) for the first three passages. The 857933-349-R-J2-PDC line was cultured in 6C/Colon 1B media, which includes advanced DMEM/F-12 (Thermo Fisher Scientific, cat. 12634028), 10 mM HEPES (Thermo Fisher Scientific, cat. 15630080), 1X GlutaMAX supplement (Thermo Fisher Scientific, cat. 35050061), 0.1 mg/mL primocin (InvivoGen, cat. ant-pm-2), 10% defined fetal bovine serum, heat inactivated (HyClone Laboratories Inc., cat. SH30070.03HI), 50% L-WRN conditioned media (ATCC, cat. CRL-3276), 1.25 mM N-Acetyl-L-cysteine (Sigma-Aldrich, cat. A9165), 10 mM nicotinamide (Sigma-Aldrich, cat. N0636), 1X B-27 supplement (Thermo Fisher Scientific, cat. 17504044), 1X N-2 supplement (Thermo Fisher Scientific, cat. 17502048), 10 microM Y-27632 dihydrochloride (Tocris Bioscience, cat. 1254), and 50 ng/mL human EGF recombinant protein (Thermo Fisher Scientific, cat. PHG0311). The 485176-168-R4-J1-PDC line was cultured in Panc media, which includes all 6C/Colon 1B media components plus 100 ng/mL human FGF-10 (Thermo Fisher Scientific, cat. 100-26), 500 nM SB-431542 (Selleckchem, cat. S1067), and gastrin (Tocris, cat. 3006).
[…]

Where “and” joins values, the source holds several entries; their conditions need not be identical. Equal entries are not always repeated. Where only a bound is given, the exact number is not on record here.

Data on 6 molecules can be found in PubChem BioAssay AID2060483 (Molecular Pharmacology Branch, DTP, NCI, 2025).
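Note: spheroids exposed to compounds for seven days.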

Regarding `C=CCn1c(=O)c2cnc(Nc3ccc(N4CCN(C)CC4)cc3)nc2n1-c1cccc(C(C)(C)O)n1`, the viability, T/C is, setting by setting: (compound 0.0316 µM) 95.1% and 91% and 82%; (compound 0.1 µM) 83.3% and 71% and 74.8%; (compound 0.316 µM) 47.9% and 50.8% and 64%; (compound 1 µM) 20.5% and 17.9% and 22.7%; (compound 3.16 µM) 13.4% and 12.8% and 16.7%; (compound 10 µM) 19.4% and 15.9% and 18.2%. Further, the IC50 (curve of compound) was 0.29 µM and 0.271 µM and 0.466 µM.
In the case of `CC(C)(O)C1CCC(Nc2ccc3ncc(-c4cccc(C(F)(F)F)c4)n3n2)CC1` (stereo unspecified), the viability, T/C is, setting by setting: (compound 0.0316 µM) 103% and 104% and 99%; (compound 0.1 µM) 95.2% and 105% and 94.7%; (compound 0.316 µM) 113% and 101% and 108%; (compound 1 µM) 61% and 80.7% and 57.2%; (compound 3.16 µM) 25% and 33.2% and 28.8%; (compound 10 µM) 48% and 40.7% and 36%. Moreover, the IC50 (curve of compound) was 1.68 µM and 2.24 µM and 1.39 µM.
Take `CCCS(=O)(=O)Nc1ccc(F)c(C(=O)c2c[nH]c3ncc(-c4ccc(Cl)cc4)cc23)c1F`: the viability, T/C by setting is: (compound 0.0316 µM) 99.8% and 109% and 105%; (compound 0.1 µM) 107% and 112% and 96.4%; (compound 0.316 µM) 128% and 125% and 130%; (compound 1 µM) 119% and 110% and 116%; (compound 3.16 µM) 137% and 147% and 123%; (compound 10 µM) 46.2% and 54.7% and 52.6%. The IC50 (curve of compound) was 9.4 µM and > 10 µM.
As to `COc1ncnc(C2CC2)c1-c1ncc2cnn(Cc3ccc(-c4nc(C(F)(F)F)cn4C(C)C)cc3)c2n1`, the viability, T/C is 90.9% and 94.8% and 89.7% (compound 0.0316 µM); 101% and 104% and 81.5% (compound 0.1 µM); 100% and 102% and 101% (compound 0.316 µM); 75.5% and 96.3% and 84.7% (compound 1 µM); 109% and 103% and 87.2% (compound 3.16 µM); 96.1% and 110% and 99.2% (compound 10 µM). The IC50 (curve of compound) is over 10 µM.
In the case of `O=C(NO)c1cnc(N2CCN(S(=O)(=O)c3ccc4ccccc4c3)CC2)nc1`, the viability, T/C by setting is: (compound 0.0316 µM) 110% and 91.7% and 116%; (compound 0.1 µM) 81% and 99.9% and 83.9%; (compound 0.316 µM) 66.6% and 72.7% and 68.1%; (compound 3.16 µM) 0.26% and 0.27% and 0.09%; (compound 10 µM) 0.25% and 0.26% and 0.14%. Moreover, under “curve of compound”, the IC50 was 0.431 µM and 0.571 µM and 0.42 µM.
Regarding `Cc1cccc(N(C)C(=O)C2C(O)CCN2c2nc(C)cc(C(F)(F)F)c2C#N)c1` (stereo unspecified) + CN(C)c1ccc(Nc2c3ccc(NC(=O)CCN4CCCC4)cc3nc3cc(NC(=O)CCN4CCCC4)ccc23)cc1, the IC50 by setting is: (curve of first compound, second compound 0.0316 µM) over 10 µM; (curve of first compound, second compound 0.1 µM) over 10 µM; (curve of first compound, second compound 0.316 µM) over 10 µM; (curve of first compound, second compound 1 µM) over 10 µM; (curve of first compound, second compound 3.16 µM) over 10 µM; (curve of first compound, second compound 10 µM) 3.01 µM. In addition, the viability, T/C (second compound 0.0316 µM, first compound 0.0316 µM) is 95.3%; the viability, T/C (second compound 0.0316 µM, first compound 0.1 µM) was 87.9%; the viability, T/C (second compound 0.0316 µM, first compound 0.316 µM) is 91.3%; the viability, T/C (second compound 0.0316 µM, first compound 1 µM) is 90.6%; the viability, T/C (second compound 0.0316 µM, first compound 3.16 µM) is 109%; the viability, T/C (second compound 0.0316 µM, first compound 10 µM) was 111%. Also, the viability, T/C (second compound 0.1 µM, first compound 0.0316 µM) is 101%; the viability, T/C (second compound 0.1 µM, first compound 0.1 µM) was 110%; the viability, T/C (second compound 0.1 µM, first compound 0.316 µM) was 106%; the viability, T/C (second compound 0.1 µM, first compound 1 µM) is 102%; the viability, T/C (second compound 0.1 µM, first compound 3.16 µM) is 100%; the viability, T/C (second compound 0.1 µM, first compound 10 µM) is 97.6%. Moreover, the viability, T/C runs as follows: (second compound 0.316 µM, first compound 0.0316 µM) 90.2%; (second compound 0.316 µM, first compound 0.1 µM) 81.9%; (second compound 0.316 µM, first compound 0.316 µM) 85.4%; (second compound 0.316 µM, first compound 1 µM) 87.7%; (second compound 0.316 µM, first compound 3.16 µM) 102%; (second compound 0.316 µM, first compound 10 µM) 95.3%. Further, the viability, T/C by setting is: (second compound 1 µM, first compound 0.0316 µM) 98%; (second compound 1 µM, first compound 0.1 µM) 83.6%; (second compound 1 µM, first compound 0.316 µM) 94.7%; (second compound 1 µM, first compound 1 µM) 107%; (second compound 1 µM, first compound 3.16 µM) 91.8%; (second compound 1 µM, first compound 10 µM) 94.3%. The viability, T/C is 93% (second compound 3.16 µM, first compound 0.0316 µM); 86.2% (second compound 3.16 µM, first compound 0.1 µM); 80.4% (second compound 3.16 µM, first compound 0.316 µM); 104% (second compound 3.16 µM, first compound 1 µM); 117% (second compound 3.16 µM, first compound 3.16 µM); 74.4% (second compound 3.16 µM, first compound 10 µM). The viability, T/C runs as follows: (second compound 10 µM, first compound 0.0316 µM) 89.7%; (second compound 10 µM, first compound 0.1 µM) 79.8%; (second compound 10 µM, first compound 0.316 µM) 76.2%; (second compound 10 µM, first compound 1 µM) 61.8%; (second compound 10 µM, first compound 3.16 µM) 51.1%; (second compound 10 µM, first compound 10 µM) 31.9%.

Broadly, the viability, T/C is the result in the treated group divided by that in the control group, in per cent. Usually IC50 stands for the midpoint of a concentration-inhibition curve.
